PMC3580045 (Journal of pharmacy & pharmaceutical sciences : a …, 2012)
Read-outs that look alike come from different tables or passages of the source. Marks after values point to notes of the source that are not given here.

Tests used:
[1] = Hydrolysis in Caco-2 cell homogenate; type: in vitro ADME, human; conditions: for Half-lives, Caco-2 Cell Homogenate: pH 7.4 phosphate buffer, 37°C, mean ± SD, n = 3, NA = no significant degradation
[2] = Hydrolysis in human non-tumor liver tissue homogenate; type: in vitro ADME; conditions: for Half-lives, Human non-Tumor Liver Tissue Homogenate: mean ± SD, n = 3, NA = no significant degradation
[3] = pH 7.4 phosphate buffer, 37°C; mean ± SD; cited from earlier work
[4] = mean ± SD; cited from earlier work
[5] = mean ± SD; cited from earlier work; remark: listed apart in the source
[6] = Stability in human liver microsomes; conditions: for Half-lives, Human Liver Microsomes: mean ± SD, n = 3, NA = no significant degradation
[7] = Hydrolysis in human small intestinal; type: in vitro ADME
[8] = Hydrolysis in AsPC-1 cell homogenate; type: in vitro ADME; conditions: human, pH 7.4
[9] = Hydrolysis in Capan-2 cell homogenate; type: in vitro ADME, human
[10] = Hydrolysis in human pancreas; type: in vitro ADME; conditions: human pancreas tissue homogenate
[11] = reported by several groups; cited from earlier work
[12] = Hydrolysis in human tumor liver tissue homogenate; type: in vitro ADME; conditions: mean ± SD, n = 3; NA = no significant degradation
[13] = phosphate buffer

Row | Structure (SMILES) | Half-lives, Caco-2 Cell Homogenate [1] [min] | Half-lives, Human non-Tumor Liver Tissue Homogenate [2] [min] | Half-lives, Buffer pH 7.4 [3] | Half-lives, AsPC-1 Cell Homogenate [4] | Half-lives, Capan-2 Cell Homogenate [5] | Half-lives, Human Liver Microsomes [6] [min] | Half-lives, Human Tumor Liver Tissue Homogenate [12] | also measured
1 | CC(C)C[C@H](N)C(=O)OC[C@H]1O[C@@H](n2cc(F)c(=O)[nH]c2=O)C[C@@H]1O [5′-O-L-leucyl-floxuridine] | 3.3 ± 0.9 | < 0.2 | 83.2 ± 1.7 ^b min | 2.0 ± 0.1 ^a min | 4.7 ± 2.1 ^b min | 0.8 ± 0.1 |  | 
2 | O=c1[nH]c(=O)n([C@H]2C[C@H](O)[C@@H](CO)O2)cc1F [Floxuridine, 5-fluoro-2′-deoxyuridine, reference compound] |  |  |  |  |  |  |  | half-life ([1]; human, Caco-2, pH 7.4): 14.3 ± 7 min; half-life ([7]; human, pH 7.4): 14 ± 4 min; half-life ([2]; human, human non-tumor liver tissue homogenate, pH 7.4): 5 ± 2.4 min; half-life [8]: 6.4 ± 3.2 min; half-life ([9]; human, Capan-2 cell homogenate, pH 7.4): 17.8 ± 5.8 min; stability (in words) [10]: good stability; half-life ([10]; human, non-tumor, pH 7.4): 209 ± 19.4 min; fold higher potency than 5-FU [11]: 10- to 100 fold; half-life ([6]; human, human liver microsomes): < 0.2 min
3 | CC[C@H](C)[C@H](N)C(=O)OC[C@H]1O[C@@H](n2cc(F)c(=O)[nH]c2=O)C[C@@H]1O [5′-O-L-isoleucyl-floxuridine] | 131.6 ± 48.4 | 5.2 ± 0.1 | 323.5 ± 1.5 ^a min | 198.0 ± 70.2 ^b min | 139.9 ± 15.3 ^b min | 19.4 ± 7.8 | < 0.2 min ^∞ | 
4 | N[C@@H](Cc1ccccc1)C(=O)OC[C@H]1O[C@@H](n2cc(F)c(=O)[nH]c2=O)C[C@@H]1O [5′-O-L-phenylalanyl-floxuridine] | 12.2 ± 0.1 | 3.2 ± 1.2 | 187.0 ± 19.0 ^b min | 11.8 ± 1.7 ^b min | 3.0 ± 0.1 ^b min | 1.3 ± 0.4 |  | 
5 | N[C@@H](Cc1ccccc1)C(=O)N[C@@H](Cc1ccc(O)cc1)C(=O)OC[C@H]1O[C@@H](n2cc(F)c(=O)[nH]c2=O)C[C@@H]1O [5′-O-L-phenylalanyl-L-tyrosyl-floxuridine] | 115.2 ± 54.2 | 358.3 ± 20.3 | 233.9 ± 6.6 ^b min | 59.7 ± 1.4 ^b min | 42.8 ± 0.0 ^b min | 253.0 ± 36.2 | 241.4 ± 5.1 min | 
6 | CC(C)[C@@H](N)C(=O)OC[C@H]1O[C@@H](n2cc(F)c(=O)[nH]c2=O)C[C@@H]1O [5′-O-D-valyl-floxuridine] | 220.4 ± 64.0 | 19.0 ± 0.2 | 344.9 ± 10.2 ^a min | 290.9 ± 48.9 ^a min |  | 705.9 ± 64.2 | 9.4 ± 0.5 ^∞ min | fold more stable than 5′-O-L-valyl-floxuridine ([1]; Caco-2 homogenate): 16.1 fold; fold more stable than 5′-O-L-valyl-floxuridine ([7]; human intestinal tissue homogenate): 11.3 fold; fold better stability than 5′-O-L-valyl-floxuridine ([2]; human liver tissue homogenates (non-tumor and tumor)): 3- to 10 fold; Half-lives, Capan-2 Cell Homogenate ([9]; mean ± SD, n = 3, NA = no significant degradation): 188.3 ± 12.1 min; fold better stability than 5′-O-L-valyl-floxuridine ([6]; human liver microsomes): 243 fold; fold more stable in human liver microsomes than in human liver tissue homogenates ([6]; microsomes vs liver tissue homogenates): at least 37 fold
7 | O=C(O[C@H]1C[C@H](n2cc(F)c(=O)[nH]c2=O)O[C@@H]1CO)[C@@H]1CCCN1 [Floxuridine-3′-L-proline] |  |  |  |  |  |  |  | stability (in words) ([1]; Caco-2 cell homogenate): stable; stability (in words) ([7]; human small bowel tissue homogenate): stable; degradation (in words) ([2]; human liver tissue homogenate, over 2 hr): no significant degradation; stability (in words) [13]: stable; degradation (in words) ([6]; human liver microsomes, over 2 hr): no significant degradation
8 | CC(C)[C@H](N)C(=O)N[C@@H](Cc1ccccc1)C(=O)OC[C@H]1O[C@@H](n2cc(F)c(=O)[nH]c2=O)C[C@@H]1O [5′-O-L-valyl-L-phenylalanyl-floxuridine] | 57.6 ± 9.3 | 2.2 ± 0.0 | 104.7 ± 7.0 ^b min | 51.6 ± 4.2 ^b min | 56.2 ± 12.8 ^b min | 24.7 ± 2.4 | < 0.2 min ^* ^∞ | 
9 | CC(C)[C@H](N)C(=O)OC[C@H]1O[C@@H](n2cc(F)c(=O)[nH]c2=O)C[C@@H]1O [5′-O-L-valyl-floxuridine] | 13.7 ± 2.0 | 2.0 ± 0.3 | 304.0 ± 33.3 ^b min | 18.7 ± 6.7 ^b min | 5.2 ± 2.4 ^b min | 2.9 ± 0.1 | 3.5 ± 0.2 ^∞ min | 
10 | N[C@@H](Cc1ccccc1)C(=O)NCC(=O)OC[C@H]1O[C@@H](n2cc(F)c(=O)[nH]c2=O)C[C@@H]1O [5′-O-L-phenylalanyl-L-glycyl-floxuridine] | 2.9 ± 0.5 | 3.2 ± 0.3 | 132.1 ± 10.2 ^b min | 10.2 ± 0.3 ^b min | 4.3 ± 0.9 ^b min | 15.9 ± 1.9 |  | 
